Where a name gives a salt, the structure may show the parent alone. Read-outs that look alike come from different tables or passages of the source.
What was measured:
[1] = system: Phosphorylated Ribosomal Protein S6 (RPS6); experiment: THP-1 RPS6 ELISA Assay; assay type: cell-based, Human; details: THP-1 cells, read-out: PI3Kγ_THP1_RPS6_ELISA IC50
Summary of the method: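 IC50 values come from a curve of percent inhibition against log compound concentration, using phospho-RPS6 ELISA (450 nm) on THP-1 lysates. Cells were serum-starved overnight, exposed to compound for 2 h at 37 °C, then challenged 15 min with 10 nM MCP-1.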

[2] = biological target: PI3Kγ (p110γ) Recombinant Human Protein (Homo sapiens (Human), UniProt P48736); experiment: PI3K-γ Scintillation Proximity Assay; assay type: biochemical; details: read-out: PI3Kγ IC50
Summary of the method: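 Radiometric SPA readout: […] bound to WGA beads after overnight shaking, IC50 derived from % activity of DMSO control. Reaction used human p110γ, 2 μM ATP, 20 μM PIP2, pH 6.7 MOPS buffer with MgCl2, DTT, CHAPS, 2% DMSO, room temperature.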

[3] = biological target: PI3Kδ (p110δ/p85α) Recombinant Human Protein (Homo sapiens (Human), UniProt O00329); experiment: PI3Kδ Scintillation Proximity Assay; assay type: biochemical
Summary of the method: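 Radiometric read-out: 33P-labelled PIP3 product captured on WGA SPA beads and counted, with IC50 fitted from percent activity relative to DMSO control. Enzyme (3.4 nM) was incubated 120 min at room temperature with 20 μM PIP2 and 2 μM ATP at pH 6.7, 2% DMSO.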

Sequence of PI3Kγ (p110γ) Recombinant Human Protein (P48736 whole entry): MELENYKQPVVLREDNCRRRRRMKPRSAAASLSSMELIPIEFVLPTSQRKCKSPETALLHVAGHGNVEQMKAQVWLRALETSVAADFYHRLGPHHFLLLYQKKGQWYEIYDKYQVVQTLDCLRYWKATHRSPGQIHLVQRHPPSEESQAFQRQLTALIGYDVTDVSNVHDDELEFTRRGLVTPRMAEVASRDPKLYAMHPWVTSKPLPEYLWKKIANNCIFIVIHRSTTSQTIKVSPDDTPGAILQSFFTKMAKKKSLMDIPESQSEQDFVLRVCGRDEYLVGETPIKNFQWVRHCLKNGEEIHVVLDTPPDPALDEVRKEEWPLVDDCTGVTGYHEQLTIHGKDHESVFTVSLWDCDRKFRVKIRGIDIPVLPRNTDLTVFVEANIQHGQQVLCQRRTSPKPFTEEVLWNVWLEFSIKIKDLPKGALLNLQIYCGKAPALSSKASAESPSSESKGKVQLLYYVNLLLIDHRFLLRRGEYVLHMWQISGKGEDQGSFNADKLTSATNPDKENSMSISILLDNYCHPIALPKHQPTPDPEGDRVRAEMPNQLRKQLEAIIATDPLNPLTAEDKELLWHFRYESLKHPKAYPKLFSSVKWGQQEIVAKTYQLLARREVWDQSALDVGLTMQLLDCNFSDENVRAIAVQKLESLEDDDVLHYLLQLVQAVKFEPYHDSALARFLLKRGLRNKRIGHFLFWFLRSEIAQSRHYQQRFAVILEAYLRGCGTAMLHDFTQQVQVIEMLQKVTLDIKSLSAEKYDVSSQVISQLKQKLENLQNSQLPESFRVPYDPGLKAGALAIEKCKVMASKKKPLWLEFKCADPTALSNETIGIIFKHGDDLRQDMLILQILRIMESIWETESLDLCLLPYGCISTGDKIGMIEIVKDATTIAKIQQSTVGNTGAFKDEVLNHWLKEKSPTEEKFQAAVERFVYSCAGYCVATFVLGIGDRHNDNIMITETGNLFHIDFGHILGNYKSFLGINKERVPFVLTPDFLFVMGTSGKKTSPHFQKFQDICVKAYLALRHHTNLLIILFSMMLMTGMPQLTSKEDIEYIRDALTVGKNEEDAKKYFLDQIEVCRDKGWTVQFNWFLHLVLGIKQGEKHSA
Sequence of PI3Kδ (p110δ/p85α) Recombinant Human Protein (O00329 whole entry): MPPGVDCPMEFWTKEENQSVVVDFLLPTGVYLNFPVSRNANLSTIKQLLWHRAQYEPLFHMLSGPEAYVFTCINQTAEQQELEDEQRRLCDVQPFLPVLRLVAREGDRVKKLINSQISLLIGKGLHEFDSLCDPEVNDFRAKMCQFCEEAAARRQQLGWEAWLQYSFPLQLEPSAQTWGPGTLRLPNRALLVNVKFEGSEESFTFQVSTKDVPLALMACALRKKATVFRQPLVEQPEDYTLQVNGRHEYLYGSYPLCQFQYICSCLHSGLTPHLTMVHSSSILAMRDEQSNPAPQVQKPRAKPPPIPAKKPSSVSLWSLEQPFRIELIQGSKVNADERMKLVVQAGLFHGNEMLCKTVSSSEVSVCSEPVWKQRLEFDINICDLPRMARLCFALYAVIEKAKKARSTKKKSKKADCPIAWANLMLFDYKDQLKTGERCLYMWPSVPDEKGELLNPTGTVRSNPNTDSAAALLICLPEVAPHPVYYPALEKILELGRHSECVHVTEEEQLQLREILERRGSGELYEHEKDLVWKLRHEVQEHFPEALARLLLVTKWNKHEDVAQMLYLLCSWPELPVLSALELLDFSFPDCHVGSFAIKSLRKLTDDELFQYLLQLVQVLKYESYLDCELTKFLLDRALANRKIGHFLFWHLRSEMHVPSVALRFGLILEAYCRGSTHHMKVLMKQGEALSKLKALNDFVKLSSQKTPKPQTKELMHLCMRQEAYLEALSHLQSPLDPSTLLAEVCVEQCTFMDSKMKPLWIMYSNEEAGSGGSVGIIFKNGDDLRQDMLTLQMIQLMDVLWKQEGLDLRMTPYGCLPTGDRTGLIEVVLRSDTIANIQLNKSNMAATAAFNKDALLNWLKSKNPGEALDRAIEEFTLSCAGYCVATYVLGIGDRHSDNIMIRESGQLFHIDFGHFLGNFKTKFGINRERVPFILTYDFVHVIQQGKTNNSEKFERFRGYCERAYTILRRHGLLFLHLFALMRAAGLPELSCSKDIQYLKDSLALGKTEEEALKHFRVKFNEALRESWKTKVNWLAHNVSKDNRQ
Sequence of PI3Kδ (p110δ/p85α) Recombinant Human Protein (P27986 whole entry partner): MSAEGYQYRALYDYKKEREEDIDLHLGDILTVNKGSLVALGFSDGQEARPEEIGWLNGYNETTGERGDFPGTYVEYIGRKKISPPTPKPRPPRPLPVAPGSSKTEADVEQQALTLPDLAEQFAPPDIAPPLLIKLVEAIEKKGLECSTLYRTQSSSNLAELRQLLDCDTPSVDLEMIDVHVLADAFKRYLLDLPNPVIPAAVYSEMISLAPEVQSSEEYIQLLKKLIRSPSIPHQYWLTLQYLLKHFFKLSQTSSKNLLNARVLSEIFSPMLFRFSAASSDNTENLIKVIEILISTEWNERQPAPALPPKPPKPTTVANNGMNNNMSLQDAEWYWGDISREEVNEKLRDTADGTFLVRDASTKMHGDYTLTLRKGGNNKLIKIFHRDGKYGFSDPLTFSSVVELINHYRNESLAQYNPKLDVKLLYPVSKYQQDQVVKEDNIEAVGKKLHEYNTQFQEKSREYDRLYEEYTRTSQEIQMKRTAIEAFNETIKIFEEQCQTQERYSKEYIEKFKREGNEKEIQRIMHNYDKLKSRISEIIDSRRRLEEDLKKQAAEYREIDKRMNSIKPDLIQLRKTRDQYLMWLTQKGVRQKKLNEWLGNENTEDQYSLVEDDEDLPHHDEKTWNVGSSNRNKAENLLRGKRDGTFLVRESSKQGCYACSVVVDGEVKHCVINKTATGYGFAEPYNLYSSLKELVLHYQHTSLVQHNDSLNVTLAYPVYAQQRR

SMILES	IC50 ([1]; Homo sapiens)	IC50 [2]	IC50 [3]	IC50 [1]
Cc1ccc(S(=O)(=O)N[C@H]2C[C@H](CO)C2)cc1-c1cnc2c(N)nccn12 [Example 56, 3-(8-Aminoimidazo[1,2-a]pyrazin-3-yl)-N-[trans-3-(hydroxymethyl)cyclobutyl]-4-methylbenzenesulfonamide]	> 1 µM	< 0.1 µM	0.5 to 2 µM	
Cc1ccc(S(=O)(=O)NC2CC2)cc1-c1cnc2c(N)ncnn12 [Example 64, 3-(4-Aminoimidazo[2,1-f][1,2,4]triazin-7-yl)-N-cyclopropyl-4-methylbenzenesulfonamide]	> 1 µM	< 0.1 µM	> 2 µM	
Cc1ccc(S(=O)(=O)NC23CCC(C(C)(C)O)(CC2)C3)cc1-c1cnc2c(N)ncnn12 [Example 431, 3-(4-Aminoimidazo[1,2-f][1,2,4]triazin-7-yl)-N-(4-(2-hydroxypropan-2-yl)bicyclo[2.2.1]heptan-1-yl)-4-methylbenzenesulfonamide trifluoroacetate salt]	0.1 to 0.5 µM	< 0.1 µM	0.1 to 0.5 µM	
Cc1nc(N)c2ncc(-c3cc(S(=O)(=O)NCC4(O)CCC4)ccc3C)n2n1 [Example 269, 3-(4-Amino-2-methylimidazo[1,2-f][1,2,4]triazin-7-yl)-N-((1-hydroxycyclobutyl)methyl)-4-methylbenzenesulfonamide trifluoroacetate salt]		< 0.1 µM	0.1 to 0.5 µM	0.1 to 0.5 µM
Cc1ccc(S(=O)(=O)N2CCC[C@@H](N)C2)cc1-c1cnc2c(N)nc(C(F)(F)F)cn12 [Example 464, (R)-3-(5-((3-Aminopiperidin-1-yl)sulfonyl)-2-methylphenyl)-6-(trifluoromethyl)imidazo[1,2-a]pyrazin-8-amine tris(2,2,2-trifluoroacetate)]	< 0.1 µM	< 0.1 µM	< 0.1 µM	
Cc1ccc(S(=O)(=O)NC23CC(c4ncno4)(C2)C3)cc1-c1cnc2c(N)nc(C(F)(F)F)cn12 [Example 295, N-(3-(1,2,4-Oxadiazol-5-yl)bicyclo[1.1.1]pentan-1-yl)-3-(8-amino-6-(trifluoromethyl)imidazo[1,2-a]pyrazin-3-yl)-4-methylbenzenesulfonamide trifluoroacetate salt]	> 1 µM	< 0.1 µM	0.5 to 2 µM	
Cc1ccc(S(=O)(=O)N2CCC[C@H]2CO)cc1-c1cnc2c(N)nc(C(F)(F)F)nn12 [Example 347, (S)-(1-((3-(4-amino-2-(trifluoromethyl)imidazo[2,1-f][1,2,4]triazin-7-yl)-4-methylphenyl)sulfonyl)pyrrolidin-2-yl)methanol]	< 0.1 µM	< 0.1 µM	0.1 to 0.5 µM	
Nc1nccn2c(-c3cc(S(=O)(=O)N[C@H]4CC[C@H](O)CC4)ccc3F)cnc12 [Example 42, 3-(8-Aminoimidazo[1,2-a]pyrazin-3-yl)-4-fluoro-N-(trans-4-hydroxycyclohexyl)benzenesulfonamide]	0.5 to 1 µM	< 0.1 µM	0.5 to 2 µM	
Cc1nc(N)c2ncc(-c3cc(S(=O)(=O)NC45CCC(CO)(CC4)OC5)cc(F)c3C)n2n1 [Example 404, 3-(4-amino-2-methylimidazo[1,2-f][1,2,4]triazin-7-yl)-5-fluoro-N-(1-(hydroxymethyl)-2-oxabicyclo[2.2.2]octan-4-yl)-4-methylbenzenesulfonamide trifluoroacetate salt]		< 0.1 µM	< 0.1 µM	< 0.1 µM
Cc1ccc(S(=O)(=O)N2CCC3(CCOCC3)C2C)cc1-c1cnc2c(N)ncnn12 (stereo not drawn) [Example 206, 7-(2-Methyl-5-((1-methyl-8-oxa-2-azaspiro[4.5]decan-2-yl)sulfonyl)phenyl)imidazo[2,1-f][1,2,4]triazin-4-amine]	> 1 µM	< 0.1 µM	0.5 to 2 µM	

Other lines, results leading:

IC50 ([1]; Homo sapiens)	IC50 [2]	IC50 [3]	IC50 [1]	SMILES
	< 0.1 µM	< 0.1 µM	< 0.1 µM	Cc1ccc(S(=O)(=O)NC23CC(C#N)(C2)C3)cc1-c1cnc2c(N)nc(C(F)(F)F)nn12 [Example 330, 3-(4-Amino-2-(trifluoromethyl)imidazo[1,2-f][1,2,4]triazin-7-yl)-N-(3-cyanobicyclo[1.1.1]pentan-1-yl)-4-methylbenzenesulfonamide trifluoroacetate salt]
< 0.1 µM	< 0.1 µM	0.1 to 0.5 µM		Cl.[2H]C([2H])([2H])c1ccc(S(=O)(=O)NC23CCC(C#N)(C2)C3)cc1-c1cnc2c(N)ncnn12 [Example 254, 3-(4-Aminoimidazo[2,1-f][1,2,4]triazin-7-yl)-N-(4-cyanobicyclo[2.1.1]hexan-1-yl)-4-(methyl-d3)benzenesulfonamide crystalline hydrochloric acid salt]
0.1 to 0.5 µM	< 0.1 µM	0.1 to 0.5 µM		Cc1ccc(S(=O)(=O)NC23CC(Cn4ccnc4)(C2)C3)cc1-c1cnc2c(N)nc(C(F)(F)F)cn12 [Example 284, N-(3-((1H-imidazol-1-yl)methyl)bicyclo[1.1.1]pentan-1-yl)-3-(8-amino-6-(trifluoromethyl)imidazo[1,2-a]pyrazin-3-yl)-4-methylbenzenesulfonamide trifluoroacetate salt]
	< 0.1 µM	0.5 to 2 µM	> 1 µM	Cc1ccc(S(=O)(=O)NC23CCC(C(=O)O)(C2)C3)cc1-c1cnc2c(N)ncnn12 [Example 109, 4-(3-(4-Aminoimidazo[1,2-f][1,2,4]triazin-7-yl)-4-methylphenylsulfonamido)bicyclo[2.1.1]hexane-1-carboxylic acid]
	< 0.1 µM	0.1 to 0.5 µM	0.1 to 0.5 µM	Cc1ccc(S(=O)(=O)NC2CN(CCO)C2)cc1-c1cnc2c(N)nc(C(F)(F)F)nn12 [Example 329, 3-(4-Amino-2-(trifluoromethyl)imidazo[1,2-f][1,2,4]triazin-7-yl)-N-(1-(2-hydroxyethyl)azetidin-3-yl)-4-methylbenzenesulfonamide trifluoroacetate salt]
> 1 µM	< 0.1 µM	0.1 to 0.5 µM		Cc1ccc(S(=O)(=O)N2CCCC(C(=O)O)C2)cc1-c1cnc2c(N)nc(C(F)(F)F)cn12 (stereo not drawn) [Example 510, 1-((3-(8-Amino-6-(trifluoromethyl)imidazo[1,2-a]pyrazin-3-yl)-4-methylphenyl)sulfonyl)piperidine-3-carboxylic acid trifluoroacetate]
0.1 to 0.5 µM	< 0.1 µM	0.1 to 0.5 µM		Cc1ccc(S(=O)(=O)N2CCCC(CO)C2)cc1-c1cnc2c(N)nc(C(F)(F)F)cn12 (stereo not drawn) [Example 472, (1-((3-(8-Amino-6-(trifluoromethyl)imidazo[1,2-a]pyrazin-3-yl)-4-methylphenyl)sulfonyl)piperidin-3-yl)methanol]
< 0.1 µM	< 0.1 µM	0.1 to 0.5 µM		Cc1ccc(S(=O)(=O)N[C@H]2CC[C@H](O)CC2)cc1-c1cnc2c(N)nc(-c3cccs3)cn12 [Example 27, 3-[8-Amino-6-(2-thienyl)imidazo[1,2-a]pyrazin-3-yl]-N-(trans-4-hydroxycyclohexyl)-4-methylbenzenesulfonamide]
